In paper PMC5651866, “Halogenated Chrysins Inhibit Dengue and Zika Virus Infectivity” (Scientific Reports, 2017):

Key:
DENV2 NGC = assay: Primary screening: compounds added to DENV2 infected LLC/MK2 cells, plaque titration of culture supernatants; format: cell-based, Dengue virus
Procedure: In this study, we selected 8 flavonoid derivatives (Fig. 1) and tested their effect on DENV2 NGC in a LLC/MK2 cell-based system. Briefly, the compounds at final concentrations of 10 μM and 25 μM in DMSO were added to DENV2 infected LLC/MK2 cells and the effect on viral particle production was measured by plaque titration of the culture supernatants. […] We also tested cytotoxicity of FV13, FV14, and CH1 to verify the viral inhibition in LLC/MK2 cells (Table 2). The viabilities of FV13 treated cells were 81.00 ± 2.69% and 59.40 ± 2.42%, at 10, and 25 µM respectively, whereas the values for FV14 treated cells were 60.24 ± 3.31% and 60.86 ± 3.57%. We also examined Vero, THP-1, HepG2, and HEK-293 cell viabilities in the presence of selected compounds (Table 2).
LLC/MK2 cells were seeded at 5 × 10^4 cells into each well of 24-well plate and incubated overnight at 37 °C under 5% CO2. Cells were infected with DENV2 at the multiplicity of infection (M.O.I.) of 0.1, unless indicated otherwise, for 1 h with gentle rocking every 15 min. Cells were washed with phosphate buffer saline (PBS) and incubated with 1 ml of MEM medium supplemented with 1% FBS as previously described. The compounds were prepared in dimethylsulfoxide (DMSO) at the indicated concentrations before addition to viral infected cells. Supernatants were collected after 5 day incubation and analyzed by plaque titration. In primary screening, DMSO-treated cells served as the untreated control. Compounds that inhibited virus production by ≥90% were selected for further characterization.

[1] = Cytotoxicity study (CellTiter 96 AQueous One) in Vero cells; format: cell-based; details: African green monkey, Vero cells, 48 h, read-out: Cells viability (%, means ± SEM) Vero
Procedure: (§1) The cytotoxicity of active compounds was tested on LLC-MK2, Vero, THP-1, HEK-293, HepG2 and C6/36 cell lines. Each cell line was seeded at 1 × 10^4 cells per well in 96-well plates and incubated overnight. The compounds were added at the indicated concentrations and the cells were incubated for 48 h, unless indicated otherwise. Cell viability was analyzed using CellTiter 96® AQueous One Solution Cell Proliferation Assay kit (Promega, Wisconsin-Madison, USA) according to manufacturer’s protocol. The plate was read at the A 450 in a VICTORTM × 3 microplate reader (PerkinElmer, Massachusetts, USA). Percent cell viability in compound-treated wells was calculated using reference DMSO-treated cells as a 100% cell viability control. The CC50 values of LLC/MK2 cells were calculated using nonlinear regression analysis. Results were reported as means and standard error of the means (SEM) of CC50 values of three independent experiments in which each drug concentration was tested in triplicate.

Vero cells = assay: as above; format: cell-based; details: 10 and 25 µM; in words
Procedure: as §1

DENV3 (16562) = assay: Antiviral efficacy (EC50) in virus infected LLC/MK2 cells, plaque assay; format: cell-based, Dengue virus
Procedure: Compound at various concentrations were added to virus infected LLC/MK2 cells and viral titers were accessed by plaque titration of supernatants as previously described.
LLC/MK2 cells were seeded at 5 × 10^4 cells into each well of 24-well plate and incubated overnight at 37 °C under 5% CO2. Cells were infected with DENV2 at the multiplicity of infection (M.O.I.) of 0.1, unless indicated otherwise, for 1 h with gentle rocking every 15 min. Cells were washed with phosphate buffer saline (PBS) and incubated with 1 ml of MEM medium supplemented with 1% FBS as previously described. The compounds were prepared in dimethylsulfoxide (DMSO) at the indicated concentrations before addition to viral infected cells. Supernatants were collected after 5 day incubation and analyzed by plaque titration[9].
Compounds were prepared in DMSO at 8–12 different concentrations and added to virus infected cells as previously described. Supernatants were collected and the EC50 values were calculated from nonlinear regression analysis.

[2] = Cytotoxicity study, summary statements over human-derived cell lines; format: cell-based; details: HepG2 and HEK-293 cells, THP-1, HepG2, HEK-293, 10 and 25 µM, Table 2
Procedure: as §1

[3] = test system: BHK-21/DENV2 replicon cells; assay: Replicon inhibition assay, RT-qPCR of replicon RNA; format: cell-based; details: Dengue virus, DENV2, BHK-21, 72 h, read-out: inhibition of DENV2 replicon replication
Procedure: Next, we studied FV13 inhibition in a DENV2 replicon replication system to investigate whether translation and replication could be implicated as drug targets. BHK-21/DENV2 replicon cells[28] were treated with 5 and 10 µM FV13 and incubated for 72 h before measuring replication efficiency by quantifying replicon RNA. Ribavirin, a known dengue virus replication inhibitor[29], was used as a positive control.
After supernatant collection, the remaining cells in experimental plates were extracted for viral RNAs using TRIzol reagent (Invitrogen, California, USA) according to the manufacturer’s protocol. The samples were loaded into the Direct-zol™ RNA MiniPrep (Zymo research, California, USA) and quantified by Nanodrop spectrophotometry (Eppendorf, New York, USA). The RT-qPCR was performed with a Step-OnePlus Real-Time PCR System (Applied Biosystems, California, USA.) with 1 × Power SYBRGreen PCR Master Mix, 400 nM each of capsid primers[40] or 250 nM of NS1 primers[41] and 0.1 µg of total RNA. The reactions were then cycled at 48 °C 30 min and 95 °C 10 min, followed by 45 cycles of 95 °C for 20 s (denaturation), 55 °C for 30 s (annealing), 72 °C for 30 s (extension). Each sample was analyzed in triplicated and results were confirmed by two independent experiments.
BHK-21 cells expressing a DENV2 replicon (BHK-21/DENV2) were maintained in minimal essential medium (MEM) supplemented with 10% fetal bovine serum (FBS), and 0.3 mg/ml G418 (Bio Basic Canada, Ontario, Canada). The protocol was adapted from Boonyasuppayakorn et al., 2014 [28]. Briefly, cells (5 × 10^4/well) were seeded into 24-well plates and were incubated for 1 day at 37 °C in a humidified CO2 chamber followed by addition of the compounds in 1% DMSO at final concentrations of 5 µM and 10 µM. DMSO (1%) alone was used as the no-inhibitor control (0% inhibition) and the reference compound was ribavirin (TargetMol, Massachusetts, USA) at a final concentration of 5 µM or 10 µM. Cells were incubated at 37 °C for 72 h and lysed to quantify DENV2 replicons by RT-qPCR. Data were reported as percent inhibition compared with ribavirin, as a reference compound and DMSO, 0% inhibition. Results were confirmed by three independent experiments.

[4] = Dengue virus, DENV2, LLC-MK2, read-out: DENV2 inhibition (%, means ± SEM)

## O=c1cc(-c2ccccc2)oc2c(Br)c(O)c(Br)c(O)c12 [FV13, 6,8-dibromo-5,7-dihydroxyflavone]
DENV2 NGC; 10 μM and 25 μM, summary of Table 1
  inhibition of virus production: > 99%
DENV2 NGC; [4]
  inhibition at 10 µM: 99.45 ± 0.48%
  inhibition at 25 µM: 99.65 ± 0.41%
[1]; 10 μM
  viability at 48 h, 10 µM: 53.1 ± 4.9%
[1]; 25 μM
  viability at 48 h, 25 µM: 42.6 ± 0.65%
Vero cells
  sensitivity of Vero cells to the compound: very sensitive
DENV3 (16562); DENV3 (16562), CC50 in LLC/MK2
  S.I. Selectivity index (CC50/EC50): 19.22
DENV3 (16562); Dengue virus, DENV3, LLC-MK2
  EC50: 2320 ± 1460 nM
[2]
  viability at 48 h: > 80%
[3]
  inhibition at 5 µM: 83.4 ± 2.04%
  inhibition at 10 µM: 82.7 ± 4.01%
